Assay results as given in ChEMBL document CHEMBL1156098, “Antitumor agents 269. Non-aromatic ring-A neotanshinlactone analog, TNO, as a new class of potent antitumor agents” (2009).

How the values were obtained:
Format in all cases: functional
[1] = tested on: SK-BR-3; experiment: Cytotoxicity against human SK-BR-3 cells after 3 days by SRB assay; settings: SK-BR-3, 72 h, read-out: ED50 (the source's name)
[2] = Cytotoxicity against human KBVIN cells after 3 days by SRB assay; settings: 72 h, read-out: ED50 (the source's name)
[3] = tested on: MDA-MB-231; experiment: Cytotoxicity against human MDA-MB-231 cells after 3 days by SRB assay; settings: MDA-MB-231, 72 h, read-out: ED50 (the source's name)
[4] = tested on: A549; experiment: Cytotoxicity against human A549 cells after 3 days by SRB assay; settings: A549, 72 h, read-out: ED50 (the source's name)
[5] = tested on: KB; experiment: Cytotoxicity against human KB cells after 3 days by SRB assay; settings: 72 h, read-out: ED50 (the source's name)
[6] = tested on: ZR-75-1; experiment: Cytotoxicity against human ZR-75-1 cells after 3 days by SRB assay; settings: ZR-75-1, 72 h, read-out: ED50 (the source's name)
[7] = tested on: DU-145; experiment: Cytotoxicity against human DU145 cells after 3 days by SRB assay; settings: DU-145, 72 h, read-out: ED50 (the source's name)

| Compound | EC50 [1] [µM] | EC50 [2] [µM] | EC50 [3] [µM] | EC50 [4] [µM] | EC50 [5] [µM] | EC50 [6] [µM] | EC50 [7] [µM] |
| --- | --- | --- | --- | --- | --- | --- | --- |
| CCc1cccc2c(O)c(-c3occ(C)c3C(=O)O)ccc12 | 3.4 | 23.6 | > 37 | 35.8 | 30.7 | 1 | 29.4 |
| COc1c(-c2occ(C)c2CO)ccc2c1CCCC2(C)C | 23.7 | 21.7 | 28.3 | 23.3 | 25.3 | 15 | 21.7 |
| CCOc1c(-c2occ(C)c2CO)ccc2c1CCCC2(C)C | 9.9 | 15.3 | 39.8 | 22.9 | 16.9 | 14.3 | 17.5 |
| COCc1c(C)coc1-c1ccc2c(c1OC)CCCC2(C)C | 18.5 | 20.1 | 47.8 | 19.4 | 11.5 | 14.3 | 17.5 |
| Cc1coc(-c2ccc3c(c2O)CCCC3(C)C)c1CO | 21.3 | 19.9 | 39.5 | 24.5 | 22 | 25.5 | 22.7 |
| CCOCc1c(C)coc1-c1ccc2c(c1OC)CCCC2(C)C | 19.8 | 16.5 | 42.7 | 22.9 | 21.6 | 19.8 | 17.7 |
| Cc1coc(-c2ccc3c(c2O)CCCC3(C)C)c1C(=O)O | 0.7 | 4.7 | 24.7 | 3.3 | 4.7 | 1.7 | 3 |
| Cc1coc2c1c(=O)oc1c3c(ccc12)C(C)(C)CCC3 | 35.8 | 34.4 | > 37 | 28 | 30.5 | 32.3 | 31.9 |
| Cc1coc2c1c(=O)oc1c3c(ccc12)CCCC3 | 5.1 | 10.2 | 38.6 | 10.2 | 31.5 | 8.3 | 32.7 |
| COC(=O)c1c(C)coc1-c1ccc2c(c1OC)CCCC2(C)C | 27.1 | 52.1 | 61 | 61 | 53.4 | 34.5 | 33.5 |
| COc1c(-c2occ(C)c2C(=O)O)ccc2c1CCCC2(C)C | 25.5 | 47.8 | > 61 | 53.5 | 43.3 | 41.4 | 34.1 |
| Cc1coc(-c2ccc3c(c2O)CCC3)c1C(=O)O | 30.2 | 30.2 | 44.6 | 41.5 | 31.4 | 30.2 | 38.4 |
| Cc1coc(-c2ccc3c(c2O)CCCC3)c1C(=O)O | 32.4 | 29.4 | 73.5 | 57 | 50 | 21.7 | 40.4 |
| COc1c(-c2occ(C)c2COC(C)=O)ccc2c1CCCC2(C)C | 14 | 24.9 | 55.6 | 28.7 | 25.4 | 15.5 | 16.7 |
| Cc1coc2c1c(=O)oc1c3c(ccc12)CCC3 | > 60 | > 37 | > 37 | > 37 | > 37 | > 37 | > 37 |
| Cc1cccc2c1ccc1c3occ(C)c3c(=O)oc21 | 0.8 | > 37 | 37.9 | 54.2 | > 37 | 1.1 | 58.3 |
